In patent publication US4153709A, “N-Heterocyclic ureas as immune regulants” (Eli Lilly and Company, priority 1977, dated 1979):
“And” between values parts separate entries of the source, which are not always exact repeats. Equal values may be shown once. Read-outs that look alike come from different tables or passages of the source.

What was measured:
[1] = tested on: antibody to sheep red blood cells; assay: 75 percent reduction of control antibody titer in mice by subcutaneous, percutaneous and oral routes (Table 16); type: in vivo, male Swiss mice; conditions: Mus musculus, Erythrocyte, × 10 daily doses commencing 3 days before antigen i.v.
Procedure: Subcutaneous, percutaneous, and oral activity have been achieved as indicated in Table 16 which follows employing representative compounds from the above entitled application. […] Except as indicated, the tests were performed using groups of five 20-gram male Swiss mice injected with 5×10^7 sheep red blood cells intravenously for each drug level. Ten (daily) administrations of drug were made commencing three days prior to red blood cell injection. On the day following the final treatment (7 days after red blood cell injection) the animals were bled by cardiac puncture, the sera from each five-mouse-group were pooled, and antibody titers of these serum pools and corresponding serum pools from control (untreated) mouse groups were determined. The results are expressed as the minimum drug dose effecting 75 percent reduction of control antibody titer: […]

[2] = tested on: Salmonella typhimurium G46 missense histidine-auxotroph; assay: Qualitative in vitro prescreen for mutagenicity, G46 indicator (Table 22); conditions: 200 mcg disc
From the text: Filter paper discs 1/4" were impregnated with 200 mcg of test compound using either H2 O or DMSO as solvent. The discs were placed on Petri dishes containing minimal media which had been individually seeded with one of the twelve tester strains. […] A uniform circle of colonies appear around the pad when a compound with mutagenic potential is present. The test compound forms a concentration gradient as it diffuses from the pad. Occasionally, there is a clear ring in close proximity to the pad surrounded by a uniform circle of revertant colonies which indicates a lethal mutation at high concentration of compound and nonlethal mutation at lesser concentration. A single pad thus allows one to test a compound over a wide range of concentrations. Histidine+ colonies were developed enough to read after 48 hr. incubation at 37° C. The plates were read as follows:
A. background zone, if present, is measured in millimeters, if not, a negative is recorded (-).
B. mutant zone is measured in millimiters, if present; if not, a negative (-) is recorded.
C. the mutation frequency can be estimated from density of mutant colonies as follows:
1. Low frequency--few colonies
2. Moderate frequency--many colonies
3. High frequency--dense ring of colonies
4. No colonies recorded (-)

[3] = tested on: antibody to sheep red blood cells; assay: Oral immunoregulating activity in marmosets (Table 17); type: in vivo
Procedure: The animals in the treated group received 10 daily 100 mg/kg doses of the drug by oral gavage. On the 4th treatment day, these animals and a similar group of controls were given intraperitoneal injections of 1×10^9 sheep red blood cells. On the 12th day following antigen injection, serum levels of antibody were determined.
*Notation: Day 0 = day of antigen injection, Day -1 = day previous, Day +

[4] = tested on: antibody response to sheep blood cells (hemaglutination titer); assay: Immune regulating test: suppression of hemaglutination titer by 4-fold factor in mice (i.p. drug, i.p. sheep blood cells), Tables 1-15; type: in vivo, Swiss mice; conditions: Mus musculus, ip, 192 h, × 3, intraperitoneal, minimum dose to suppress the hemaglutination titer by a 4-fold factor, 8 days after antigen, read-out: Immuno-Suppressant ED4-Fold
In short: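 Groups of five 20-gram Swiss mice received compound i.p. and sheep blood cell antigen i.p.; sera pooled per group eight days after antigen. Hemagglutination titers of pooled sera compared with controls; value is the minimum dose suppressing titer 4-fold versus control.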

[5] = tested on: fatal glomerulonephritis in NZB/w mice; type: in vivo; conditions: for MST (mean survival time) / Percent Survivors: 300th day
From the text: NZB/w mice provide a close model of the human autoimmune disease, lupus erythematosis. These hybrid mice develop antinuclear antoantibody in the early months of life, which antibody becomes deposited in the glomeruli in the form of a complex with the inciting antigen. A fatal glomerulonephritis ensues. A group of these mice had been placed under continuous therapy (via the feed) with 1-(6-methoxy-2-benzothiazolyl)-3-) phenyl urea for 300 days. The mice were divided into three subgroups, 10 mice receiving 75 mg/kg/day of drug, 10 mice receiving 25 mg/kg/day, and 11 mice serving as untreated controls.
In view of the close parallel of this murine model to the human counterpart, this would appear of significance in terms of long-term human therapy.

[6] = 10 daily 100 mg/kg doses oral, individual marmoset, 100 mg/kg

COc1ccc2nc(NC(=O)Nc3ccccc3)sc2c1 [Table 11: phenyl, 6-CH3 O, S, 1-(6-methoxy-2-benzothiazolyl)-3-phenyl urea]
minimal effective dose ([1]; sc, subcutaneous, read-out: Lowest Dose Producing 75% Immunosuppression, Subcutaneous): 0.8 to 1.6 mg/kg | minimal effective dose ([1]; oral, read-out: Lowest Dose Producing 75% Immunosuppression, Oral): 12.5 to 25 mg/kg | minimal effective dose ([1]; percutaneous, read-out: Lowest Dose Producing 75% Immunosuppression, Percutaneous): 12.5 mg/kg | IN VITRO QUALITATIVE ACTIVITY [2]: N | detectable antibody response ([3]; 10 daily 100 mg/kg doses by oral gavage, 12th day following antigen, control four out of five): none of the treated marmosets showed a detectable response | Weight Change (%) Day +6 to +19 [3, 6]: -6.8% and +9.1% and +6.0% and +5.7% | Weight Change (%) Day -7 to +6 [3, 6]: -18.8% and -6.2% and -21.4% and -5.7% and -8.2% | Antibody Titer (reciprocal) Day +12 ([3]; 10 daily 100 mg/kg doses oral, individual marmoset, Day 0 = antigen injection): < 5 | animals gaining weight by the 19th day ([3]; 10 daily 100 mg/kg doses oral, treated group): four of the five animals were gaining weight | minimal effective dose [4]: < 25 mg/kg | MST (mean survival time) ([5]; 25 mg/kg/day in feed): 214 days | Percent Survivors ([5]; 25 mg/kg/day in feed): 60% | Day of Death ([5]; 75 mg/kg/day in feed, 10 mice, 300 days): 180,281 | MST (mean survival time) ([5]; 75 mg/kg/day in feed): 286 days | Percent Survivors ([5]; 75 mg/kg/day in feed): 80% | effect on survival parameters ([5]; 300 days of therapy, 25 and 75 mg/kg/day): A dose-related effect of the drug on survival parameters | effect on life span ([5]; female NZBxW mice): able to prolong the life of female NZBxW mice
